This note sets out measurements from patent publication US11220503B2, “Phthalazine derivatives, preparation method, pharmaceutical composition and usage thereof” (Shanghai SIMR Biotech Co., Ltd., priority 2015, dated 2022).

The structures appear in SMILES notation. Some results are limits rather than exact numbers.

The target of data set [1] is T1, α5β3γ2 receptor (Homo sapiens, UniProt P18507+P31644).
T1 construct: expressed in transfected cells; host or cells: HEK-293 (stably transfected)
Nature of the data set: Supplementary data for cell level screening: new electrophysiology method (I. Lecker et al). It is filed as cell-based. The note with it: for Inverse agonism efficacy(%): new method, CsCl intracellular solution, GABA 0.1˜0.3 CM, other procedures as previous method; for inverse agonism efficacy of the compound/α5IA inverse agonism efficacy: ratio to the α5IA reference run above in the table (r4 or r29).

A short description of data set [2]: Tissue distribution of the compounds (brain/plasma). The format is in vivo. The note with it: brain and plasma, po; rat, 10 mg/kg p.o. in 50% PEG400, one hour; read-out: Brain/Plasma ratio. The protocol:
The distribution ratio of blood brain tissue was calculated by comparing the concentration of compound in rat plasma and brain tissue. The experimental animals were divided into two groups, the plasma group and the brain group, each with three. Rats were administed compounds in 50% PEG400 p.o. at a dose of 10 mg compound to be tested/kg. One hour later, plasma and brain samples were taken. Concentrations of compounds in brain and plasma were detected using LC-MS/MS-A (Triple Quad 5500) assay and analyzed using Phoenix WinNonlin.

Data set [3] can be described thus: Compound tissue distribution (brain/plasma). The note with it: brain and plasma, po; rat, 10 mg/kg p.o. in 50% PEG400, one hour; read-out: Brain/Plasma ratio. It is filed as in vivo. The protocol: The distribution ratio of blood brain tissue was calculated by comparing the concentration of compound in rat plasma and brain tissue. The experimental animals were divided into two groups, the plasma group and the brain group, each with three. To measure brain to plasma ratio, rats were administed compounds in 50% PEG400 p.o. at a dose of 10 mg compound to be tested/kg. One hour later, plasma and brain samples were taken. Concentrations of compounds in brain and plasma were detected using LC-MS/MS-AJ (Triple Quad 5500) assay and analyzed using Phoenix WinNonlin.
We also measured the brain to plasma ratio of compound #24. The experimental animals were divided into two groups, the plasma group and the brain group, each with three. To measure the brain to plasma ratio, Rats were administered compounds (1 mg/kg in 5% DMSO+70% PEG400+25% H2O p.o.). One hour later, plasma and brain samples were taken. Concentrations of compounds in brain and plasma were detected using a LC-MS/MS-AJ (Triple Quad 5500) assay and analyzed using Phoenix WinNonlin.

T1 sequence (P31644 32-462): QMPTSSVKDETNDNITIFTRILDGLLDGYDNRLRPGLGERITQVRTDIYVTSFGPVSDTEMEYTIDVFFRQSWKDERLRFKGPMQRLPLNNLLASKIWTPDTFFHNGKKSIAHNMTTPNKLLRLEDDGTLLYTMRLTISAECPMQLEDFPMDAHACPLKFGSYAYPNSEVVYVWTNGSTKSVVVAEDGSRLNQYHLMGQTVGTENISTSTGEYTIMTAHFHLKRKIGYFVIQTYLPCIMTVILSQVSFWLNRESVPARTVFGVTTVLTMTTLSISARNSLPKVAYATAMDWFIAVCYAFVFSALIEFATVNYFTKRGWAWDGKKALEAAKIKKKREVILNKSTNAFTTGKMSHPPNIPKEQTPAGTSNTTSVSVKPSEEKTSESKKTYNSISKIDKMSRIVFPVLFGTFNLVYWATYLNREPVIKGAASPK
T1 sequence (P28472 26-473 isoform P28472-2 partner limits assumed): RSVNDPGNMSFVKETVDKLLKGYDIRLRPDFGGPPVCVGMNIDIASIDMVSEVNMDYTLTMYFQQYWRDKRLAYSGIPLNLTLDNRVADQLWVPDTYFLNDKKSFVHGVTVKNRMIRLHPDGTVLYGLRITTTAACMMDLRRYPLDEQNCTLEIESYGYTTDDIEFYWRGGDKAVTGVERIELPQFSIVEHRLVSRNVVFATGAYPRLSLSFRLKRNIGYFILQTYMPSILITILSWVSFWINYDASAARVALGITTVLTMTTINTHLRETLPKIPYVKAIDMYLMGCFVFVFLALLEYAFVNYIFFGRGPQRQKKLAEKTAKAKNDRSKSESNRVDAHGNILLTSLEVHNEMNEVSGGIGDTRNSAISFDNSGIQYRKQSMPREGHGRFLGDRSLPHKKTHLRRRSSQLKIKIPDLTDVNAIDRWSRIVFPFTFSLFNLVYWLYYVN
T1 sequence (P18507 40-475): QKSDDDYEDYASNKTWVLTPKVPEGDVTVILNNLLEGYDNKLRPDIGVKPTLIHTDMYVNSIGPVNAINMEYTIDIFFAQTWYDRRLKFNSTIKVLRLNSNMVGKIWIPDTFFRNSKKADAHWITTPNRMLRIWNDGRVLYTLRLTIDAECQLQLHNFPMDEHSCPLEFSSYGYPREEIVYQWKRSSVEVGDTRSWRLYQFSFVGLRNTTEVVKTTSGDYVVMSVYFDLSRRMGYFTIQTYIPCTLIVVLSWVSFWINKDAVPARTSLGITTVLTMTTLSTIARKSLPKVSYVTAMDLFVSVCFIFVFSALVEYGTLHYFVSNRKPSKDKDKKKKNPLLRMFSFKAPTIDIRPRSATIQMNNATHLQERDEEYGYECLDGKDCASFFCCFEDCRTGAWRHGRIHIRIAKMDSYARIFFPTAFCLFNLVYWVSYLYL

Take `COCCNC(=O)c1ccc(COc2nn3c(-c4cc(C)on4)nnc3c3ccccc23)nc1` [Compound 08, N-(2-methoxyethyl)-6-(((3-(5-methylisoxazol-3-yl)-[1,2,4]triazolo[3,4-a]phthalazin-6-yl)oxy)methyl)nicotinamide]: in data set [1], the “Inverse agonism efficacy(%)” value is on record as −35.375% and the “inverse agonism efficacy of the compound/α5IA inverse agonism efficacy” value came to 1.902. In data set [2], the Kp at 1 h was below 0.01. Besides, in data set [3], the Kp at 1 h is below 0.01.

On to `CCNC(=O)c1ccc(COc2nn3c(-c4cc(C)on4)nnc3c3ccccc23)nc1` [Compound 07, N-ethyl-6-(((3-(5-methylisoxazol-3-yl)-[1,2,4]triazolo[3,4-a]phthalazin-6-yl)oxy)methyl)nicotinamide], for which, in data set [1], the “Inverse agonism efficacy(%)” value is reported as −21.1667% and the “inverse agonism efficacy of the compound/α5IA inverse agonism efficacy” value turned out to be 1.219. For the same compound, in data set [2], the Kp at 1 h was below 0.01. In addition, in data set [3], the Kp at 1 h is below 0.01.
